Common to all, as to assay type: biochemical
One assay has as its target T1, HDAC6 enzyme (Homo sapiens, UniProt Q9UBN7).
T1 construct: transducing full length HDAC1 and HDAC6 genes into Sf-9 insect cells; GST; purchased SignalChem; host or cells: Sf-9 insect cells
T1 sequence (Q9UBN7 1-1215): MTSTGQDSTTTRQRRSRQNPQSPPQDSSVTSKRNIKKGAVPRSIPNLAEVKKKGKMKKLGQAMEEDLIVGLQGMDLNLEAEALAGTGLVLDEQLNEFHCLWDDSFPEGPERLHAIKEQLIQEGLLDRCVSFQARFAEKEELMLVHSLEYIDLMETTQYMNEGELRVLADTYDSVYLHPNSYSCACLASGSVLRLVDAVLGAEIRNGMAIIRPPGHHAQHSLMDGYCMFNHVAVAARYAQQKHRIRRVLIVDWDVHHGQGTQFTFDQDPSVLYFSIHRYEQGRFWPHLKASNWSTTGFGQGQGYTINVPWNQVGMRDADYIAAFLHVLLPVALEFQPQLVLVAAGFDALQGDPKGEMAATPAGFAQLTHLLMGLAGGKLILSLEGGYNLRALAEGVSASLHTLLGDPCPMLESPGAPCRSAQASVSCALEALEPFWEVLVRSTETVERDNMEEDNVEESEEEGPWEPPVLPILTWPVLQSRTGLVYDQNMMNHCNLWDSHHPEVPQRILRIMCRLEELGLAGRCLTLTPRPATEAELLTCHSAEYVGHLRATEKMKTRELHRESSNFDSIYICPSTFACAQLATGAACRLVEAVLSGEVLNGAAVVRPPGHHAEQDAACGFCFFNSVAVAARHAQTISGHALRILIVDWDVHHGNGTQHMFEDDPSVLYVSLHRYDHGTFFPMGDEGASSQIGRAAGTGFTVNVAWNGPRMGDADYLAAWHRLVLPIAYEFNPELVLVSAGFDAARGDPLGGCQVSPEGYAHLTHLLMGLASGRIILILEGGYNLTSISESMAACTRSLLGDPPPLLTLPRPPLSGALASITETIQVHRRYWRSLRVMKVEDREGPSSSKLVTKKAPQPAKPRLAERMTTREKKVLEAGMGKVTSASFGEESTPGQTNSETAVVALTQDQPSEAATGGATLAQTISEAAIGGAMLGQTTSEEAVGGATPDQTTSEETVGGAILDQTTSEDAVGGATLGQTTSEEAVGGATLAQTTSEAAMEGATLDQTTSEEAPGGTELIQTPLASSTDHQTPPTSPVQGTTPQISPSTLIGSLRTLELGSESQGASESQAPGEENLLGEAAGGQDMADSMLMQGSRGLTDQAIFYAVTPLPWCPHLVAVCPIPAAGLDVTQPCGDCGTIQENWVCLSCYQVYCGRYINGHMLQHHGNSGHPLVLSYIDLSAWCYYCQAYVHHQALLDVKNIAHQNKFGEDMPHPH
The assay is described as follows: HDAC1/6 Enzyme Inhibitory Assay (HDAC-Glo I/II Assay kit), HDAC6. Particulars: 1 μM test compound; wells without enzyme = 100% inhibition; read-out: HDAC6 inhibitory rate (%) (1 μM). The gist of the method:
(§1)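 Luminescent HDAC-Glo I/II read-out was taken 20 min after adding substrate-developer, at room temperature. Before this, compound and enzyme were held together for 60 min in 24 mM Tris-HCl pH 7.5 with 0.6 mM glutathione and 0.01% Tween-20. The enzyme was full-length HDAC1 or HDAC6 from Sf-9 cells, GST-purified. Wells without enzyme defined 100% inhibition.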

For a further assay, the target named is T2, HDAC1 enzyme (Homo sapiens, UniProt Q13547).
T2 construct: transducing full length HDAC1 and HDAC6 genes into Sf-9 insect cells; GST; purchased SignalChem; host or cells: Sf-9 insect cells
The assay is described as follows: HDAC1/6 Enzyme Inhibitory Assay (HDAC-Glo I/II Assay kit), HDAC1. Particulars: 1 μM test compound; wells without enzyme = 100% inhibition; read-out: HDAC1 inhibitory rate (%) (1 μM). In outline:
as §1

The next assay concerns the target T3, HDAC9 enzyme (Homo sapiens, UniProt Q9UKV0).
T3 construct: transducing full length HDAC9 gene into Sf-9 insect cells; made in house; host or cells: Sf-9 insect cells
The assay is described as follows: HDAC9 Enzyme Inhibitory Assay (HDAC-Glo class IIa). Particulars: 1 μM test compound; wells without enzyme = 100% inhibition; read-out: HDAC9 inhibitory rate (%) (1 μM). In outline:
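Full-length human HDAC9 from Sf-9 cells, Ni-NTA purified, preincubated with compound for 60 min at room temperature in Tris-HCl pH 7.5 buffer (MgCl2, KCl, NaCl, glutathione, Tween-20). HDAC-Glo class IIa substrate-developer added; luminescence read after 20 min, with no-enzyme wells defining 100% inhibition.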

T3 sequence (Q9UKV0 whole entry, species assumed): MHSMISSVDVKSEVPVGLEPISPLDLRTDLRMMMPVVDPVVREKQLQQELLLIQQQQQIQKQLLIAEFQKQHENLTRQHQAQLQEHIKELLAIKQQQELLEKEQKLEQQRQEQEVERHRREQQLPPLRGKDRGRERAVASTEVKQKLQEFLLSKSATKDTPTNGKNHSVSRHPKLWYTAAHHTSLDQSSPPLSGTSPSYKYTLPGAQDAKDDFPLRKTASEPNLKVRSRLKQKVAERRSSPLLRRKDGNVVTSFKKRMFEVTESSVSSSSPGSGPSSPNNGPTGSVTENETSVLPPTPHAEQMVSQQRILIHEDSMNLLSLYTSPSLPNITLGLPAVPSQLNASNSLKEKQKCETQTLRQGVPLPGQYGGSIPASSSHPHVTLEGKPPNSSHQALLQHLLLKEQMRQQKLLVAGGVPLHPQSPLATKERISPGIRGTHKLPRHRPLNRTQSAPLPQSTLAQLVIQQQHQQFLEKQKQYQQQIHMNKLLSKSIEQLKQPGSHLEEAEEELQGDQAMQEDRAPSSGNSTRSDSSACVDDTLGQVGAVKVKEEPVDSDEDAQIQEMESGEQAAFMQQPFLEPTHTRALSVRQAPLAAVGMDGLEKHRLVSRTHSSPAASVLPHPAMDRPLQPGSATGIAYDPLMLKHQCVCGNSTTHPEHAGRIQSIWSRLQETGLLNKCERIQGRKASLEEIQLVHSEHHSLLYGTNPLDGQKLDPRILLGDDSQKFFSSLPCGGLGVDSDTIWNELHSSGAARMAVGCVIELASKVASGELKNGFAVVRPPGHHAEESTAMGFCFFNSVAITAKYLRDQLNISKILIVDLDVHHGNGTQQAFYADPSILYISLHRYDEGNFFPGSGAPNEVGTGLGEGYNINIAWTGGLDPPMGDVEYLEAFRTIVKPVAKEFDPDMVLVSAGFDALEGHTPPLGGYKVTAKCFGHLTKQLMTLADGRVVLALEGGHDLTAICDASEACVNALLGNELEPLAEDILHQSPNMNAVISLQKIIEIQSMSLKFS
T2 sequence (Q13547 whole entry): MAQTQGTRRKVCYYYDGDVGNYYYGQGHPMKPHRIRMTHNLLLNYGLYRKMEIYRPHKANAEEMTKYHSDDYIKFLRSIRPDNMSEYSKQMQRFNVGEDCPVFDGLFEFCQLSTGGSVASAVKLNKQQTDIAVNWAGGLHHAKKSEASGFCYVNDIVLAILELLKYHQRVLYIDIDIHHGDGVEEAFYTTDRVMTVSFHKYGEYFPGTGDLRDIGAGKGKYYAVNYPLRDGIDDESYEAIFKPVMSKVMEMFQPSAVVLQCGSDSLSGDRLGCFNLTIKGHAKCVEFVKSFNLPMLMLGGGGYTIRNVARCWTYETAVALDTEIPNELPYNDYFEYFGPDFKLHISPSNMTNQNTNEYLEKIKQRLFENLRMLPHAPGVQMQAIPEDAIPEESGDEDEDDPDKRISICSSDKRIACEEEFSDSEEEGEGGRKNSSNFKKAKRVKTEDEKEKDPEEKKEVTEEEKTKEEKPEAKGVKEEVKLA

Regarding `O=C(N[C@@H]1CCCC[C@H]1N1Cc2ccc(-c3noc(C(F)(F)F)n3)cc2C1=O)c1cocn1` [Example 103, N-((1R,2R)-2-(1-oxo-6-(5-(trifluoromethyl)-1,2,4-oxadiazol-3-yl)-1,3-dihydro-2H-isoindol-2-yl)cyclohexyl)-1,3-oxazole-4-carboxamide], the figures for the inhibition at 1 µM at HDAC6 enzyme, at HDAC1 enzyme and on HDAC9 enzyme were 102%, 14% and 55%, respectively.
For the compound `CN1CCC[C@H]1C(=O)N[C@@H]1CCCC[C@H]1N1Cc2ccc(-c3noc(C(F)(F)F)n3)cc2C1=O` [Example 104, 1-methyl-N-((1R,2R)-2-(1-oxo-6-(5-(trifluoromethyl)-1,2,4-oxadiazol-3-yl)-1,3-dihydro-2H-isoindol-2-yl)cyclohexyl)-L-prolinamide], the inhibition at 1 µM on HDAC6 enzyme came to 98%; on HDAC1 enzyme, 3%; at HDAC9 enzyme, 43%.
Taken in the same sequence, the figures for `O=C(N[C@@H]1CCCC[C@H]1N1Cc2ccc(-c3noc(C(F)(F)F)n3)cc2C1=O)C1CC1(F)F` (stereo partly drawn) [Example 105, 2,2-difluoro-N-((1R,2R)-2-(1-oxo-6-(5-(trifluoromethyl)-1,2,4-oxadiazol-3-yl)-1,3-dihydro-2H-isoindol-2-yl)cyclohexyl) cyclopropanecarboxamide] were 100%, 7% and 50%.
Take `N#Cc1ccccc1C(=O)N[C@@H]1CCCC[C@H]1N1Cc2ccc(-c3noc(C(F)(F)F)n3)cc2C1=O` [Example 106, 2-cyano-N-((1R,2R)-2-(1-oxo-6-(5-(trifluoromethyl)-1,2,4-oxadiazol-3-yl)-1,3-dihydro-2H-isoindol-2-yl)cyclohexyl)benzamide]: the inhibition at 1 µM at HDAC6 enzyme is 101%; at HDAC1 enzyme it was 58%; at HDAC9 enzyme it was 88%.
With `CC1(C)CC1C(=O)N[C@@H]1CCCC[C@H]1N1Cc2ccc(-c3noc(C(F)(F)F)n3)cc2C1=O` (stereo partly drawn) [Example 107, 2,2-dimethyl-N-((1R,2R)-2-(1-oxo-6-(5-(trifluoromethyl)-1,2,4-oxadiazol-3-yl)-1,3-dihydro-2H-isoindol-2-yl)cyclohexyl) cyclopropanecarboxamide], the inhibition at 1 µM is 99% on HDAC6 enzyme, 11% on HDAC1 enzyme and 57% on HDAC9 enzyme.
For the compound `O=C1NCCC1C(=O)N[C@@H]1CCCC[C@H]1N1Cc2ccc(-c3noc(C(F)(F)F)n3)cc2C1=O` (stereo partly drawn) [Example 108, 2-oxo-N-((1Rr2R)-2-(1-oxo-6-(5-(trifluoromethyl)-l ,2,4-oxadiazol-3-yl)-1,3-dihydro-2H-isoindol-2-yl)cyclohexyl)pyrrolidine-3-carboxamide], the inhibition at 1 µM at HDAC6 enzyme was 97%; at HDAC1 enzyme it was 2%; on HDAC9 enzyme, 35%.
Turning to `O=C1NCC(C(=O)N[C@@H]2CCCC[C@H]2N2Cc3ccc(-c4noc(C(F)(F)F)n4)cc3C2=O)N1` (stereo partly drawn) [Example 109, 2-oxo-N-((1R,2R)-2-(1-oxo-6-(5-(trifluoromethyl)-1,2,4-oxadiazol-3-yl)-1,3-dihydro-2H-isoindol-2-yl)cyclohexyl)imidazolidine-4-carboxamide], the inhibition at 1 µM was 71% at HDAC6 enzyme, -2% on HDAC1 enzyme and 19% on HDAC9 enzyme.
On to `Cn1cncc1C(=O)N[C@@H]1CCCC[C@H]1N1Cc2ccc(-c3noc(C(F)(F)F)n3)cc2C1=O` [Example 110, 1-methyl-N-((1R,2R)-2-(1-oxo-6-(5-(trifluoromethyl)-1,2,4-oxadiazol-3-yl)-1,3-dihydro-2H-isoindol-2-yl)cyclohexyl)-1H-imidazole-5-carboxamide], for which the results for the inhibition at 1 µM at HDAC6 enzyme, at HDAC1 enzyme and at HDAC9 enzyme were 99%, 18% and 73%, respectively.

Values taken from patent publication US10308643B2, “Heterocyclic compound” (Takeda Pharmaceutical Company Limited, priority 2015, dated 2019).
